{"source": "patent US9938278B2", "about": "“FXR (NR1H4) modulating compounds” (Gilead Sciences, Inc., priority 2014, dated 2018)", "biological_target": "T1, human FXR alpha ligand binding domain (Homo sapiens, UniProt Q96RI1)", "T1 construct": "made in house; host or cells: E. coli BL21 (DE3), vector pDEST15", "T1 sequence (Q96RI1 187-472 isoform Q96RI1-2)": "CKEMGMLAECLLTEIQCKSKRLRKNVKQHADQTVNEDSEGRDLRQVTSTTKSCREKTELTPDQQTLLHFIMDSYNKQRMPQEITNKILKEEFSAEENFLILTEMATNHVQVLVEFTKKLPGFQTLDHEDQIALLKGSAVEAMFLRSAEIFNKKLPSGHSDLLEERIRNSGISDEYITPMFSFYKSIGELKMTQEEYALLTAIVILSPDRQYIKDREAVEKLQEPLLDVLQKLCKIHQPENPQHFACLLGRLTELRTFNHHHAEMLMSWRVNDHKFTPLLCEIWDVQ", "test": "FRET Activity Assay (ligand mediated cofactor peptide interaction)", "type": "biochemical", "conditions": "LANCE time-resolved FRET; GST-FXR-LBD with biotinylated SRC-1 peptide (676-700); read-out: agonistic potential EC50", "description": "Assays FRET Activity Assay Determination of a ligand mediated cofactor peptide interaction to quantify ligand binding to the nuclear receptor FXR was performed as follows: Preparation of human FXR alpha ligand binding domain: The human FXRalpha LBD was expressed in E. coli strain BL21 (DE3) as an N-terminally GST tagged fusion protein. The DNA encoding the FXR ligand binding domain was cloned into vector pDEST15 (Invitrogen). Expression was under control of an IPTG inducible T7 promoter. The amino acid boundaries of the ligand binding domain were amino acids 187-472 of Database entry NM_005123 (RefSeq). Expression and purification of the FXR-LBD: An overnight preculture of a transformed E. coli strain was diluted 1:20 in LB-Ampicillin medium and grown at 30° C. to an optical density of OD600=0.4-0.6. Gene expression was then induced by addition of 0.5 mM IPTG. […] The protein was analysed by SDS-Page.\nThe method measures the ability of putative ligands to modulate the interaction between the purified bacterial expressed FXR ligand binding domain (LBD) and a synthetic biotinylated peptide based on residues 676-700 of SRC-1 (LCD2, 676-700). […] The ligand binding domain (LBD) of FXR was expressed as fusion protein with GST in BL-21 cells using the vector pDEST15. […] The LANCE signal was detected by a Perkin Elmer VICTOR2VTM Multilabel Counter. […]", "data": [{"smiles": "CC(C)n1nc(C(=O)O)cc1N1CCC(O)(c2ccc(OCc3c(-c4c(Cl)cccc4Cl)noc3C3CC3)cc2Cl)CC1", "note": "[Example 1, 5-(4-(2-Chloro-4-((5-cyclopropyl-3-(2,6-dichlorophenyl)isoxazol-4-yl)methoxy)phenyl)-4-hydroxypiperidin-1-yl)-1-isopropyl-1H-pyrazole-3-carboxylic Acid]", "values": [{"measurement": "EC50", "result": "< 25", "unit": "nM"}]}]}
